Experimental data: the NIST ThermoML archive (doi:10.1016/j.jct.2016.10.047)
Numbers after ± are expanded uncertainties.

Tests used:
[1] = refractive index (other wavelength) (dimensionless); settings: 94 kPa, Liquid, Wavelength=632.8 nm, minimum deviation method
[2] = refractive index (other wavelength) (dimensionless); xn = mol fraction of the nth substance listed; settings: 94 kPa, Liquid, Wavelength=632.8 nm, minimum deviation method, x2 = 0

For `CCCCCCCC[n+]1ccn(C)c1.F[P-](F)(F)(F)(F)F` [1-octyl-3-methylimidazolium hexafluorophosphate], which refractive index ([1]; 298.19 K) is on record?
Its refractive index is 1.4215 ± 0.0003.

And the refractive index ([1]; 300.2 K)?
The refractive index was 1.421 ± 0.0003.

What about the refractive index ([1]; 302.19 K) of the same molecule?
The refractive index was 1.4204 ± 0.0003.

What about the refractive index ([1]; 304.2 K) of the same molecule?
Its refractive index is 1.4199 ± 0.0003.

And the refractive index ([1]; 306.22 K)?
The refractive index was 1.4193 ± 0.0003.

What about the refractive index ([1]; 308.24 K) of the same molecule?
The refractive index was 1.4188 ± 0.0003.

And the refractive index ([1]; 310.25 K)?
The refractive index was 1.4183 ± 0.0003.

What about the refractive index ([1]; 312.24 K) of the same molecule?
Its refractive index is 1.4178 ± 0.0003.

With `CC(C)O` [propan-2-ol] as the molecule, how does the refractive index ([1]; 298.21 K) read?
The refractive index was 1.3736 ± 0.0002.

And the refractive index ([1]; 300.17 K)?
The refractive index was 1.3728 ± 0.0002.

What about the refractive index ([1]; 302.2 K) of the same molecule?
Its refractive index is 1.3719 ± 0.0002.

And the refractive index ([1]; 304.24 K)?
The refractive index was 1.371 ± 0.0002.

And the refractive index ([1]; 306.22 K)?
The refractive index was 1.3701 ± 0.0002.

What about the refractive index ([1]; 308.22 K) of the same molecule?
Its refractive index is 1.3693 ± 0.0002.

What about the refractive index ([1]; 310.24 K) of the same molecule?
Its refractive index is 1.3684 ± 0.0002.

What about the refractive index ([1]; 312.2 K) of the same molecule?
The refractive index was 1.3675 ± 0.0002.

Which refractive index ([2]; 298.21 K) does the source give for `CC(C)O` [propan-2-ol] + CCCCCCCC[n+]1ccn(C)c1.F[P-](F)(F)(F)(F)F here?
The refractive index was 1.3736 ± 0.0002.

What about the refractive index ([2]; 300.17 K) of the same molecule?
The refractive index was 1.3728 ± 0.0002.

What about the refractive index ([2]; 302.2 K) of the same molecule?
The refractive index was 1.3719 ± 0.0002.

What about the refractive index ([2]; 304.24 K) of the same molecule?
Its refractive index is 1.371 ± 0.0002.

What about the refractive index ([2]; 306.22 K) of the same molecule?
The refractive index was 1.3701 ± 0.0002.

And the refractive index ([2]; 308.22 K)?
The refractive index was 1.3693 ± 0.0002.

And the refractive index ([2]; 310.24 K)?
The refractive index was 1.3684 ± 0.0002.

What about the refractive index ([2]; 312.2 K) of the same molecule?
The refractive index was 1.3675 ± 0.0002.
